Measured values from US20230129258A1, “HETEROTANDEM BICYCLIC PEPTIDE COMPLEXES” (BicycleTx Limited, priority 2019, published 2023).
Values joined by “and” are separate entries in the source; they are usually repeats but may differ in a detail not shown here. Equal entries are not always repeated. “Also recorded” adds a separate entry of the source. Where two headings read alike, the source gives them in different places. Starred links: 1 amine or outer side, 2 acyl side, 3 side chain; linkers in the order of their positions; H or OH if unused. Positions of bridges follow the written chain, without caps; N, C: chain ends. Non-standard residues stand in square brackets, D forms with d. Chains are numbered I, II in the order given. X1 = O=C(CCOCCOCCOCCN(CCOCCOCCOCCn1cc(CCC(=O)[*:2])nn1)CCOCCOCCOCCn1cc(CCC(=O)[*:3])nn1)[*:1]; TATA = O=C(CC[*:1])N1CN(C(=O)CC[*:2])CN(C(=O)CC[*:3])C1; d1Nal = N[C@H](Cc1cccc2ccccc12)C(=O)O; Hyp = O=C(O)[C@@H]1C[C@@H](O)CN1; hArg = N=C(N)NCCCC[C@H](N)C(=O)O; tBuAla = CC(C)(C)C[C@H](N)C(=O)O; Nle = CCCC[C@H](N)C(=O)O

Legend:
[1] = test system: MC38 #13 tumors; experiment: Re-inoculation of complete responders with MC38 #13 cells (immunogenic memory); assay type: in vivo, C57BL/6J-hCD137 mice; settings: re-inoculated day 69 with 1x10^6 MC38 #13 cells; 22 days observation
Source text: On day 69, 5 animals that had responded completely to BCY11863 treatment were re-inoculated with 1×10^6 MC38 #13-cells. A cohort of 5 naïve C57BL/6J-hCD137 female mice were inoculated with 1×10^6 MC38 #13-cells as a control.

[2] = test system: CT26 #7 tumors; experiment: Anti-tumor activity in syngeneic Nectin-4 overexpressing CT26 tumor model (CT26 #7); assay type: in vivo, BALB/c-hCD137 mice; settings: 5 mg/kg ip Q3D, 6 doses; from day 7 forward
Description: 6-8 weeks old BALB/c-hCD137 female mice were inoculated in the flank with 3×10^5 syngeneic Nectin-4 overexpressing CT26 cells (CT26 #7). When tumors reached around 70 mm^3 size on average, mice were randomized to receive vehicle or 5 mg/kg BCY11863 intraperitoneally every three days (6 doses total). Tumor growth was monitored by caliper measurements until day 14 after treatment initiation.

[3] = target: T1, human Nectin-4 (Homo sapiens, UniProt Q96NY8); experiment: SPR direct binding to biotinylated Nectin-4 extracellular domain, human
T1 sequence (Q96NY8 32-349 limits assumed): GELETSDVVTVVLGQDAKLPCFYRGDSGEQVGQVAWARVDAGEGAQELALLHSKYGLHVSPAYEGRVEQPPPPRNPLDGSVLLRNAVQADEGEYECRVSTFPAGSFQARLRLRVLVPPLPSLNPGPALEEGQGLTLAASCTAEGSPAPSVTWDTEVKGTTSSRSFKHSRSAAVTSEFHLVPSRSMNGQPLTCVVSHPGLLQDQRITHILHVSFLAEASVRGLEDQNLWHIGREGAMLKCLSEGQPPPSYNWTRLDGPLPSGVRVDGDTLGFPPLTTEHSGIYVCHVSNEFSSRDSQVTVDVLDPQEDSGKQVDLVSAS
Source text: The binding of BCY11863 to its primary target Nectin-4 and CD137 was characterized using surface plasmon resonance (SPR).

[4] = target: CD137 (Homo sapiens, UniProt Q07011); experiment: CD137 reporter assay (Promega CD137 luciferase reporter, Jurkat cells) in co-culture with Nectin-4-expressing tumor cells; assay type: cell-based; parameters: host or cells: Jurkat reporter cells; settings: for EC50: Arithmetic mean EC50 (nM)
[5] = test system: human PBMCs; experiment: Human PBMC co-culture cytokine secretion assay with EphA2-expressing tumor cells (MC38, HT-1080, HT29); assay type: cell-based; settings: anti-CD3, 48 h, read-out: EC50 of IL-2 cytokine secretion
Description: […] MC38 were cultured in Dulbecco's Modified Eagle Medium supplemented with 10% heat inactivated Fetal Bovine Serum (FBS), 1× Penicillin/Streptomycin, 10 mM HEPES, and 2 mM L-Glutamine (referred to as R10 medium). Frozen PBMCs from healthy human donors were thawed and washed once in room temperature PBS with benzonase, and then resuspended in RPMI supplemented with 10% heat inactivated Fetal Bovine Serum (FBS), 1× Penicillin/Streptomycin, 10 mM HEPES, and 2 mM L-Glutamine (herein referred to as R10 medium). 100 μl of PBMCs (1,000,000 PBMCs/ml) and 100 μl of tumor cells (100,000 tumor cells/ml) (Effector:Target cell ratio (E:T) 10:1) were plated in each well of a 96 well flat bottom plate for the co-culture assay. 100 ng/ml of soluble anti-CD3 mAb (clone OKT3) was added to the culture on day 0 to stimulate human PBMCs. Test, control compounds, or vehicle controls were diluted in R10 media and 50 μL was added to respective wells to bring the final volume per well to 250 μL. Plates were covered with a breathable film and incubated in a humidified chamber at 37° C. with 5% CO2 for two days. […] Briefly, the standards and samples were added to a black 96 well plate. Microparticle cocktail (provided in Luminex kit, R&D Systems) was added and shaken for 2 hours at room temperature. The plate was washed 3 times using a magnetic holder. Biotin cocktail was then added to the plate and shaken for 1 hour at RT. The plate was washed 3 times using a magnetic holder. Streptavidin cocktail was added to the plate and shaken for 30 minutes at RT. The plates were washed 3 times using a magnetic holder, resuspended in 100 μL of wash buffer, shaken for 2 minutes at RT, and read using the Luminex 2000. Raw data were analyzed using built-in Luminex software to generate standard curves and interpolate protein concentrations, all other data analyses and graphing were performed using Excel and Prism software. Data represents one study with three independent donor PBMCs tested in experimental duplicates.
Similarly, PBMCs from healthy donors were co-cultured with EphA2 expressing cancer cells (MC38 and HT-1080) at a ratio of 5:1 in presence of anti-CD3 and BCY13272. […]

[6] = test system: MC38 tumors; experiment: Anti-tumor activity of BCY13272 in syngeneic MC38 tumor model with re-challenge; assay type: in vivo, C57BL/6J-hCD137 mice; settings: for complete responders: 6 doses, day 28
Description: 6-8 week old female C57BL/6J-hCD137 mice [B-hTNFRSF9(CD137) mice; Biocytogen] were implanted subcutaneously with 1×10^6 MC38 cells. Mice were randomized into treatment groups (n=6/cohort) when average tumor volumes reached around 80 mm^3 and were treated with vehicle (25 mM histidine, 10% sucrose, pH7) intravenously (IV), 8 mg/kg BCY13272, 0.9 mg/kg BCY13272 and 0.1 mg/kg BCY13272 IV. All treatments were given twice a week (BIW) for 6 doses in total. Tumor growth was monitored until Day 28 from treatment initiation. Complete responder animals (n=7) were followed until day 62 after treatment initiation and re-challenged with an implantation of 2×10^6 MC38 tumor cells and tumor growth was monitored for 28 days. In parallel, naïve age-matched control huCD137 C57Bl/6 mice (n=5) were implanted with 2×10^6 MC38 tumor cells monitored for 28 days.

CD137, sequence (Q07011 24-255): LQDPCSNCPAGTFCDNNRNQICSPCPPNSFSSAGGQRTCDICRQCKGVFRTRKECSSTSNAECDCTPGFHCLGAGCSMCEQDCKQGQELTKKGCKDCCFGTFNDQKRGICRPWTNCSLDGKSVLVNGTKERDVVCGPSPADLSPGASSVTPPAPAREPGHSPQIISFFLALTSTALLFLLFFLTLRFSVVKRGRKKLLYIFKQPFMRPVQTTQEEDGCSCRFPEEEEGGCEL

Which results are given for `CCCC[C@@H]1NC(=O)[C@H](Cc2ccc(O)cc2)NC(=O)[C@@H]2CCCN2C(=O)[C@H](CC(=O)O)NC(=O)[C@H](C)NC(=O)[C@H](Cc2ccccc2)NC(=O)[C@@H]2CSCCC(=O)N3CN(CN(C3)C(=O)CCSC[C@@H](C(=O)N[C@@H](C)C(N)=O)NC1=O)C(=O)CCSC[C@H](NC(C)=O)C(=O)N[C@@H](CC(C)(C)C)C(=O)N1CCC[C@H]1C(=O)N[C@@H](CCC(=O)O)C(=O)N[C@H](CCCCNC(=O)CCc1cn(CCOCCOCCOCCN(CCOCCOCCOCCC(=O)N[C@H]3CSCCC(=O)N4CN5CN(C4)C(=O)CCSC[C@H](NC(=O)[C@@H](CC(=O)O)NC(=O)[C@H](Cc4cccc6ccccc46)NC(=O)[C@@H]4CCCN4C3=O)C(=O)N[C@@H](CCSC)C(=O)N[C@@H](CCCCNC(=N)N)C(=O)N[C@@H](CC(=O)O)C(=O)N[C@@H](Cc3c[nH]c4ccccc34)C(=O)N[C@@H](CO)C(=O)N[C@@H]([C@@H](C)O)C(=O)N3CCC[C@H]3C(=O)N3C[C@H](O)C[C@H]3C(=O)N[C@@H](Cc3c[nH]c4ccccc34)C(=O)N[C@H](C(N)=O)CSCCC5=O)CCOCCOCCOCCn3cc(CCC(=O)NCCCC[C@H]4NC(=O)[C@H](CCC(=O)O)NC(=O)[C@@H]5CCCN5C(=O)[C@H](CC(C)(C)C)NC(=O)[C@@H](NC(C)=O)CSCCC(=O)N5CN6CN(C5)C(=O)CCSC[C@H](NC(=O)[C@H](Cc5ccc(O)cc5)NC(=O)[C@@H]5CCCN5C4=O)C(=O)N[C@@H](Cc4ccccc4)C(=O)N[C@@H](C)C(=O)N[C@@H](CC(=O)O)C(=O)N4CCC[C@H]4C(=O)N[C@@H](Cc4ccc(O)cc4)C(=O)N[C@@H](CCCC)C(=O)N[C@H](C(=O)N[C@@H](C)C(N)=O)CSCCC6=O)nn3)nn1)C(=O)N1CCC[C@H]1C(=O)N[C@@H](Cc1ccc(O)cc1)C(=O)N2` [BCY11863]?
tumor development after re-inoculation of complete responders [1]: none of the CR mice developed tumors; also recorded: none of the inoculated complete responder mice developed tumors; tumor growth [2]: significantly (p<0.0001, Student's t-test) reduced the tumor growth; Kd ([3]; KD, biotinylated ECD captured on streptavidin chip): 5 to 27 nM and 4.1 nM; Kd ([3]; SPR KD Human (25° C.), Direct Binding, biotinylated Nectin-4 extracellular domain, 25° C.): 5 ± 2.1 nM; Kd ([3]; SPR KD Human (37° C.), Direct Binding, biotinylated Nectin-4 extracellular domain, 37° C.): 5.2 ± 1.1 nM; EC50 ([4]; co-culture with CT26#7 (mouse)): 0.14 ± 0.07 nM; EC50 ([4]; co-culture with HT1376 (human), Table 1B): 0.52 ± 0.3 nM; EC50 ([4]; co-culture with MC38#13 (mouse)): 0.31 ± 0.26 nM; EC50 ([4]; co-culture with MDA-MB-468 (human)): 0.23 ± 0.01 nM; EC50 ([4]; co-culture with NCI-H292 (human), Table 1B): 0.28 ± 0.2 nM; EC50 ([4]; co-culture with NCI-H322 (human)): 0.33 ± 0.21 nM; EC50 ([4]; co-culture with T47D (human)): 0.42 ± 0.24 nM; CD137 activation in CD137 reporter assay ([4]; FIG. 1A, Nectin-4 expressing H292 cells): induces strong CD137 activation; Fold improvement in EC50 over BCY10000 on same plate ([4]; co-culture with NCI-H292): 4.56 fold; Fold improvement in Emax over BCY10000 on same plate ([4]; co-culture with NCI-H292): 2.16 fold; Fold Induction over Background ([4]; co-culture with NCI-H292, Table 1A): 81 ± 29 fold

Which results are given for “I: A[hArg]DC[Hyp]LVNPLCLEP[d1Nal]WTC-NH2 / II: Ac-C[tBuAla]PE[dK]PYCFADPY[Nle]CA-NH2 / III: Ac-C[tBuAla]PE[dK]PYCFADPY[Nle]CA-NH2 (linker I:4-I:11-I:18, II:1-II:8-II:15, III:1-III:8-III:15 via TATA; linker I:N-II:5-III:5 via X1) [BCY13272]”?
EC50 ([5]; human PBMC-HT-1080 co-culture): 0.55 ± 0.47 nM; EC50 ([5]; human PBMC-MC38 co-culture): 0.79 ± 0.24 nM; complete responders ([6]; 0.9 mg/kg IV BIW): 2 out of 6; complete responders ([6]; 8 mg/kg IV BIW): 5 out of 6; tumor regrowth after MC38 re-challenge of complete responders ([6]; re-challenge day 62, monitored 28 days): no tumor regrowth
